Test results taken from patent publication US9868935B2, “Composition and method of stem cells for preservation of cardiac tissue” (CRIOESTAMINAL, SAÚDE E TECNOLOGIA, SA., priority 2012, dated 2018).

Assays:
[1] = molecular target: T1, peroxisome proliferator-activator receptor γ (PPAR γ) (Homo sapiens, UniProt P37231); settings: literature studies; cited from earlier work
T1 sequence (P37231 1-505): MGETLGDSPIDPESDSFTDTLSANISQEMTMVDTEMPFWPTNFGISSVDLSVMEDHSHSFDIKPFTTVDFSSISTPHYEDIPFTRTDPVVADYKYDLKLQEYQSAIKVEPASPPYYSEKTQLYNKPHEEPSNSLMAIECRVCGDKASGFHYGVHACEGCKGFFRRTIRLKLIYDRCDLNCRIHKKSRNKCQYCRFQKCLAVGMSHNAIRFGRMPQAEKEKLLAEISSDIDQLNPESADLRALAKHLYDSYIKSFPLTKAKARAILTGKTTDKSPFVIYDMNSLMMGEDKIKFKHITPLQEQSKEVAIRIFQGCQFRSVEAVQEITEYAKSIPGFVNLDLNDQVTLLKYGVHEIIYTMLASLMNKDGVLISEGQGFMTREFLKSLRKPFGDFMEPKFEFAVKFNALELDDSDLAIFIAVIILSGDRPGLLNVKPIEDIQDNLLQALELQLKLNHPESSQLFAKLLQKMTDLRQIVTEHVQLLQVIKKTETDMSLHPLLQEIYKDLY

[2] = tested on: CD34+ cells; assay: CD34+ cell self-renewal/differentiation by FACS; format: cell-based, human; settings: LPA-treated; after 1 day of hypoxia
Procedure: In an embodiment, multicolor analysis for progenitor and stem cell phenotyping was performed on a FACS Calibur cytometer (preferably, Becton Dickinson). Cells were stained for 1 h with APC or pacific blue antihuman CD45 (preferably, e-Bioscience), FITC anti-mouse CD45 (preferably, -Bioscience), PeCy7 anti-human CD33 (preferably, BD Bioscience), PE anti-human CD11b (preferably, BD Bioscience), FITC anti-human CD19 (preferably, BD Bioscience), PeCy7 anti-human CD3 (preferably, BD Bioscience), PE anti-human Glycophorin A (preferably, BD Bioscience), FITC anti-human CD41 (preferably, e-bioscience), and PeCy7 anti-human CD56 (preferably, BD Bioscience), washed with staining media and analyzed.
To examine the effect of LPA in CD34+ cell self-renewal/differentiation, untreated and LPA-treated CD34+ cells were cultured in X-vivo medium in hypoxia conditions for 1 day followed or not by 6 days in normoxia and finally characterized by FACS. After 1 day of hypoxia, both untreated or LPA-treated CD34+ cells started to differentiate into mast cells (between 14 and 17%) and neutrophils (between 5 and 8%) (FIG. 3B). Only 78% and 72% of the untreated or LPA-treated CD34+ cells express CD34 marker. CD34 expression is higher in cells that have been exposed to hypoxia than in normoxia conditions since only 6% of the cells cultured in normoxia conditions for 24 h express CD34 marker. […]

[3] = tested on: human umbilical cord blood derived CD34+ cells; assay: CD34+ cell survival in hypoxia and serum deprived conditions (Annexin V/PI flow cytometry); format: cell-based; settings: for percentage of viable cells: LPA-treated (100 μM)
Procedure: In an embodiment, UCB CD34+ cells (1×10^^6 cells/mL) were incubated in X-Vivo media (Lonza) in a hypoxia chamber for 24 h (0.5% of O2 and 5% of CO2), in the presence or absence of pharmacological drugs, for further assessment of cell survival/apoptosis and necrosis by FACS analysis of the expression of annexin V and PI respectively. Preferably, cells were pretreated with the respective drugs for 1 hour before hypoxia, and treatment maintained during hypoxia.
In a preferred embodiment, to identify molecules that promote CD34+ cell survival in hypoxia and serum deprived conditions we developed an assay that uses human umbilical cord blood derived CD34+ cells (2×10^^5 cells per well of a 96-well plate) suspended in X-Vivo medium (used in clinical trials (Schachinger, V., et al., Intracoronary bone marrow-derived progenitor cells in acute myocardial infarction. N Engl J Med, 2006. 355(12): p. 1210-21)) and incubated in a hypoxia chamber at 0.5% O2, at 37° C., for 24 h. Some of the drugs selected have been approved by FDA for the treatment of cardiovascular diseases (e.g. Nebivolol Lombardo, R. M., et al., Effects of nebivolol versus carvedilol on left ventricular function in patients with chronic heart failure and reduced left ventricular systolic function. Am J Cardiovasc Drugs, 2006. 6(4): p. 259-63; Ibersatan Massie, B. M., et al., Irbesartan in patients with heart failure and preserved ejection fraction. N Engl J Med, 2008. 359(23): p. 2456-67), others are being evaluated in pre-clinical/clinical assays to improve heart function in patients/models with heart failure (e.g. INO1001 (Szabo, G., et al., INO-1001 a novel poly(ADP-ribose) polymerase (PARP) inhibitor improves cardiac and pulmonary function after crystalloid cardioplegia and extracorporal circulation. Shock, 2004. 21(5): p. 426-32); erythropoietin (Belonje, A. M., et al., Effects of erythropoietin after an acute myocardial infarction: rationale and study design of a prospective, randomized, clinical trial (HEBE III). Am Heart J, 2008. 155(5): p. 817-22); melatonin (Chen, Z., et al., Protective effect of melatonin on myocardial infarction. Am J Physiol Heart Circ Physiol, 2003. 284(5): p. H1618-24); VX-702 (Ma, X. L., et al., Inhibition of p38 mitogen-activated protein kinase decreases cardiomyocyte apoptosis and improves cardiac function after myocardial ischemia and reperfusion. Circulation, 1999. 99(13): p. 1685-91)), others are natural substances found in the human body (LPA). Cell viability was evaluated by flow cytometry using Annexin V/propidium iodide (PI) staining. Annexin V is a phospholipid-binding protein with specificity for phospatidyl serine, one of the earliest makers of cellular transition to an apoptotic state. This phospholipid is translocated from the inner to the outer leaflet of the plasma membrane (Koopman, G., et al., Annexin V for flow cytometric detection of phosphatidylserine expression on B cells undergoing apoptosis. Blood, 1994. 84(5): p. 1415-20.). PI enters in necrotic cells and binds to double-stranded nucleic acids, but is excluded from cells with normal integrity. According to FIG. 1, untreated CD34+ cells show a very poor survival, with only ˜31% of viable cells, ˜31% of apoptotic cells (Annexin V+/PI−) being the majority of the cells ˜39% at the necrotic stage (PI+). […] LPA (10 μM) was the drug with the highest pro-survival effect (˜69% of viable cells) and therefore further studied (FIGS. 1 and 2A).
Importantly, the percentage of viable cells in CD34+ treated with 1 μM of LPA and cultured under hypoxia conditions is similar to untreated cells cultured under normoxia conditions. The pro-survival effect of LPA decreases as a function of hypoxia time (FIG. 2C). The percentage of viable cells in LPA-treated CD34+ cells decreased from 78% at day 1 to 40% at day 3.

For lysophosphatidic acid [LPA], the “affinity for PPARγ” value [1] is listed as “high affinity”, the “cells expressing CD34 marker” value [2] is listed as 72% and the “survival of CD34+ cells vs control (untreated cells)” value ([3]; 1 μM LPA, hypoxia 24 h, P<0.001, n=6) is listed as “statistically significant”. The viable cells ([3]; LPA 10 μM, hypoxia 0.5% O2, 24 h, serum free X-Vivo medium) was roughly 69%, the “percentage of viable cells” value ([3]; hypoxia day 1) was 78% and the “percentage of viable cells” value ([3]; hypoxia day 3) was 40%. The “cell survival vs untreated cells” value ([3]; hypoxia 0.5% O2, 24 h, serum free, P<0.001) was “improved significantly” and the “survival relatively to untreated cells” value ([3]; hypoxia and serum deprived conditions) was “double their survival”.
